Measurements taken from PMC9147192, “Small Molecule Arranged Thermal Proximity Coaggregation (smarTPCA)—A Novel Approach to Characterize Protein–Protein Interactions in Living Cells by Similar Isothermal Dose–Responses” (International Journal of Molecular Sciences, 2022).

What was measured:
CANX = molecular target: T1, CANX (Homo sapiens, UniProt P27824); assay: TPP-CCR in living HL-60 cells; type: cell-based
T1 construct: endogenous in cells; host or cells: HL-60 (ATCC CCL-240)
T1 sequence (P27824 21-592): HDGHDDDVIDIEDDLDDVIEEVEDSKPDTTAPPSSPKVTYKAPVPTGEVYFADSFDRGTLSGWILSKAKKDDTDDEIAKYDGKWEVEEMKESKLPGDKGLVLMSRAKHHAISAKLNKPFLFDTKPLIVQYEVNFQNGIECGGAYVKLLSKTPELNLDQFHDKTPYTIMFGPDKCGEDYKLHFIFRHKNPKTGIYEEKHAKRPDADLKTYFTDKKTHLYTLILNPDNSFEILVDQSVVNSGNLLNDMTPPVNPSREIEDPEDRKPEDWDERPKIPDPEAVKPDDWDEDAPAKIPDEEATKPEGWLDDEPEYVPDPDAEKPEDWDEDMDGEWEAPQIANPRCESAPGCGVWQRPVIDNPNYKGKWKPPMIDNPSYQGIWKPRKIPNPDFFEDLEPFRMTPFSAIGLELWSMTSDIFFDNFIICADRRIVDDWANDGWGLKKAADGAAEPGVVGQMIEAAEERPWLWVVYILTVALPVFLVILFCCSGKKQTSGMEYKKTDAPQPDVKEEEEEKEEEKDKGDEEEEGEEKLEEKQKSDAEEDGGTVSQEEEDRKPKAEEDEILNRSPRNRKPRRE

LRRC59 = molecular target: T2, LRRC59 (Homo sapiens, UniProt Q96AG4); assay: TPP-CCR in living HL-60 cells; type: cell-based
T2 construct: endogenous in cells; host or cells: HL-60 (ATCC CCL-240)
T2 sequence (Q96AG4 1-307): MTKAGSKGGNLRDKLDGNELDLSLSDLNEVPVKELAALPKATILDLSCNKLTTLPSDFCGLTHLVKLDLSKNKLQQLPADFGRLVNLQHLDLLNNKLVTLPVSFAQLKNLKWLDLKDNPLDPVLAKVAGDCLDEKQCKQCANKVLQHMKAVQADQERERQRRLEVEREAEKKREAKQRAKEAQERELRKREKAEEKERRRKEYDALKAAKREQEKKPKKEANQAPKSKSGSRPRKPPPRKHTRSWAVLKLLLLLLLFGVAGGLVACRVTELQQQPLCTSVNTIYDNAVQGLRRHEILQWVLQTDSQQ

[1] = living HL-60 cells, […] °C, TMT-MS

SMILES: Cc1cnc(Nc2ccc(F)cc2Cl)nc1-c1c[nH]c(C(=O)N[C@H](CO)c2cccc(Cl)c2)c1 [ERK 11e]
- Hill slope (CANX; TPP-CCR, living cells, CANX): 0.80
- EC50 (CANX; [1]): 871 nM
- Hill slope (CANX) (CANX; [1]): 0.80
- Hill slope (LRRC59; TPP-CCR, living cells, LRRC59): 0.59
- Hill slope (LRRC59) (LRRC59; [1]): 0.59
- EC50 (LRRC59; living HL-60 cells, […] °C, TMT-MS, read-out: pEC50 (LRRC59) (converted)): 1480 nM
